Experimental data reported in paper PMC3348126, “Pharmacogenetics Meets Metabolomics: Discovery of Tryptophan as a New Endogenous OCT2 Substrate Related to Metformin Disposition” (PLoS ONE, 2012).
pIC50: −log10 of the molar value. One block for each molecule: values may come before it.

What was measured:
Type in all cases: cell-based
[1] = biological target: T1, Organic cation transporter 2 (OCT2) 808G>T variant (Homo sapiens, UniProt O15244); test: [3H]tryptophan uptake ([…]) in oocytes expressing the variant
T1 construct: gene SLC22A2; OCT2 808G>T variant expressed in oocytes
T1 sequence (O15244 1-555): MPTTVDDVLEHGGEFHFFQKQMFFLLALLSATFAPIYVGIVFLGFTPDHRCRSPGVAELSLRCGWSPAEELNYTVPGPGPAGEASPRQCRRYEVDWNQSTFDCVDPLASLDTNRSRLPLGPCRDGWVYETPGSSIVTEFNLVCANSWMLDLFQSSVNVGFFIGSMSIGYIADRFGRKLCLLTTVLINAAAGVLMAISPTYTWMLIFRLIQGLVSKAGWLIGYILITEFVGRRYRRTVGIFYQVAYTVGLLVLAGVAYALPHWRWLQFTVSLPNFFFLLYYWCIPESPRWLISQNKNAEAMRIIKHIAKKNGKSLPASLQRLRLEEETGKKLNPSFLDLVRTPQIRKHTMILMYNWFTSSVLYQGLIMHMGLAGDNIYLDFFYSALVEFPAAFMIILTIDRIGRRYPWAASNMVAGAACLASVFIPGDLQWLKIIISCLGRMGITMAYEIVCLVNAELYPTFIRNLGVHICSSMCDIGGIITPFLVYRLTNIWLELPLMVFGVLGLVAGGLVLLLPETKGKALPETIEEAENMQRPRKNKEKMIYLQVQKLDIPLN

[2] = biological target: T2, Organic cation transporter 2 (OCT2) (Homo sapiens, UniProt O15244); test: inhibition of [3H]MPP+ uptake and direct [3H]tryptophan uptake in OCT2-expressing oocytes
T2 construct: gene SLC22A2

OCT1 = biological target: T3, OCT1 (Homo sapiens, UniProt O15245); test: inhibition of OCT1-mediated [3H]MPP+ uptake and direct tryptophan uptake in oocytes; details: read-out: % inhibition at 1 mM
T3 construct: gene SLC22A1; OCT1 expressed in oocytes (pcDNA3.1-OCT1)
T3 sequence (O15245 1-554): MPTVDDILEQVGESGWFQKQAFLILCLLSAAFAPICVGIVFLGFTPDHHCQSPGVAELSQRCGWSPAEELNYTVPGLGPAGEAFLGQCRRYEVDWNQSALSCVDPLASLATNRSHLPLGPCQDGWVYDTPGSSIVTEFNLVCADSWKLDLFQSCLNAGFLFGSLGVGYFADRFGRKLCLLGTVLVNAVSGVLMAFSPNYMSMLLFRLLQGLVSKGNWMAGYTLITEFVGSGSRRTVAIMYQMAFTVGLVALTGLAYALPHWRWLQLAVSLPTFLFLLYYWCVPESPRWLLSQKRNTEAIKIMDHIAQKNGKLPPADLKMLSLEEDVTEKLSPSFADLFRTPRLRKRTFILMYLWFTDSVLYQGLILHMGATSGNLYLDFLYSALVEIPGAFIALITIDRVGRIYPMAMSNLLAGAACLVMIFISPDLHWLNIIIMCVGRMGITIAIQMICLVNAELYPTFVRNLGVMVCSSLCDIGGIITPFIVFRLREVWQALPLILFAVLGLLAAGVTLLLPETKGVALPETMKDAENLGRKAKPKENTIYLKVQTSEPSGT

[3] = biological target: T4, Organic cation transporter 2 (OCT2) (Homo sapiens, UniProt O15244); test: inhibition of [3H]MPP+ uptake in OCT2-expressing oocytes
T4 construct: gene SLC22A2; OCT2 expressed in oocytes
T4 sequence (O15244 1-555): T1 sequence (O15244 1-555)

[4] = biological target: T2, Organic cation transporter 2 (OCT2); test: [3H]MPP+ uptake ([…]) in OCT2-expressing oocytes, water-injected background subtracted

SMILES: N[C@@H](Cc1c[nH]c2ccccc12)C(=O)O [L-tryptophan]
[3H]tryptophan uptake (100 nM) in oocytes expressing the variant [1]: 0.14 fmol/min/oocyte
pIC50 [2]: 2.21
inhibition at 1000 µM (OCT1): 50%

pIC50 [3]: 1.29
SMILES: O=c1ccn([C@@H]2O[C@H](CO)[C@@H](O)[C@H]2O)c(=O)[nH]1 [uridine]

SMILES: C[n+]1ccc(-c2ccccc2)cc1 [MPP+]
[3H]MPP+ uptake (18.5 nM) in OCT2-expressing oocytes, water-injected background [4]: 2.9 fmol/min/oocyte
